# Source: patent US12016906B2, “Pharmaceutical composition for anaemia” (Frimline Private Limited, priority 2018, dated 2024)
# Key:
# Format in all cases: in vivo, male Wistar rats (Rat Rattus)
# [1] = system: Iron deficient Diet (IDD) induced anaemia in rats; assay: Ferroportin level in IDD induced anaemia in rats
# Experimental: (§1) Screening of pharmaceutical composition/formulation comprising combination of Lactoferrin+Guanosine Nucleotide or a pharmaceutically acceptable salt thereof with or without optional ingredients against Iron deficient Diet (IDD) induced anaemia in rats. For this study different parameters like Hb Level, Hematocrit level, Serum Iron level, Ferroportin level, Serum Ferritin level, Hepcidin level and IL-6 Level were evaluated. The following trials were carried out by taking reference from Wang Xl, Liu S, Xu H, Yan W, Effects of recombinant human lactoferrin on improving the iron status of IDA. Wei Sheng Yan Jiu. 2012 January; 41(1):13-7, 22 and Nora M. El-Sheikh, the Protective Effect of Soybean and Thyme on Iron Deficiency Anemia in Rats, the Egyptian Journal of Hospital Medicine (2008) Vol., 33: 510-520 as available.
# (§2) 72 male Wistar rats (Rat Rattus) (6 per group) were maintained in animal house in a light/dark atmosphere based on a 12 hour cycle having temperature and relative humidity in the range of 22±3° C. and 30-70% respectively. To maintain the appropriate conditions, temperature and relative humidity were recorded three times daily. All animals were acclimatized for a minimum period of five days. Animals were maintained in the test setup for minimum 30 minutes once during the acclimatization period to reduce the stress. Animals were weighed on the day of receipt and observed daily for abnormalities if any. Detailed records of acclimatization were also maintained. Rats were housed 6 per cage in clean, sterilized Polypropylene cages. During complete experiment, animals were supplied with the standard certified rat pellet feed (manufactured by Keval sales corporation, Vadodara) and drinking water treated by the reverse osmosis ad libitum. Analysis reports for microbial load and contaminants in feed and water and nutrient content of feed were also retained.
# (§3) In order to evaluate the activity against IDD induced anaemia, seventy two (72) rats were screened and divided in to twelve groups. For a comparative analysis, groups were divided as normal control (Group 1), disease control (Group 2), treatment groups with individual components (Group 3, Group 4, Group 5, Group 6 and Group 7 as Lactoferrin, Disodium Guanosine monophosphate (GMP), Guanosine diphosphate (GDP), Guanosine triphosphate (GTP) and Vitamin C respectively), test composition/formulation of the present invention (Group 8 as combination of Lactoferrin Disodium GMP, Group 9 as combination of Lactoferrin GDP, Group 10 as combination of Lactoferrin+GTP, […] as combination of Lactoferrin+Disodium GMP+Vitamin C) and reference standard drug (Group 12). Table 1 provides the details of the various groups and treatments conducted in the trial wherein group no. G3 to G12 are treatment groups.
# (§4) Group nos. 2 to 12 animals under consideration were administered IDD (3 mg Fe/Kg of diet) for the period of 3 weeks, while group 1 animal received Normal pellet diet (35 mg Fe/Kg of diet).
# (§5) After 5 weeks (35 days) of respective dietary intervention, once again hemoglobin level, HCT % level and serum iron level were analyzed and then, respective drug treatment was started with continuous administration of Iron deficient diets in all groups as mentioned above in Table 1.
# (§6) After 9 weeks of respective drug treatment (total after 14 weeks from start of the study—98 days), various biochemical parameters were measured to evaluate the effect of respective individual and combination therapy on iron deficient anaemia model (G3 to G12).
# (§7) • A. Clinical observations (Daily) • B. Mortality (Daily) • C. […]
# [2] = system: Iron deficient Diet (IDD) induced anaemia in rats; assay: IL-6 level in IDD induced anaemia in rats
# Experimental: as §1, with “Jiu.” for “Jiu. 2012 January; 41(1):13-7, 22 and Nora M. El-Sheikh, the Protective Effect of Soybean and Thyme on Iron Deficiency Anemia in Rats, the Egyptian Journal of Hospital Medicine (2008) Vol., 33: 510-520 as available.”
# as §2, §3, §5, §6
# • A. Clinical observations (Daily) • B. Mortality (Daily) • C. Body weight (Initially and then weekly till the end of study) • D. After 3 and 5 weeks of Iron deficient diet supplement • (i) Hematological parameters (RBC count, Hb Level, Hematocrit % MCV, MCH and MCHC). • (ii) Serum Iron Level. • E. At the end of 14 weeks of study • (i) Hematological parameters (RBC count, Hb Level, Hematocrit %, MCV, MCH and MCHC). • (ii) Biochemical parameters (Serum Iron level, Ferroportin level, Serum Ferritin level, Hepcidin level, IL-6 level). Statistical Analysis: One way ANOVA followed by Tuckey's test was performed and p value<0.05 is considered to be statistically significant. […] Hematology: (after 3 Weeks and 5 Weeks of Feed Intervention and after 9 Weeks of Treatment)
# [3] = system: Iron deficient Diet (IDD) induced anaemia in rats; assay: Hb level in IDD induced anaemia in rats
# Experimental: as §1, with “Jiu.” for “Jiu. 2012 January; 41(1):13-7, 22 and Nora M. El-Sheikh, the Protective Effect of Soybean and Thyme on Iron Deficiency Anemia in Rats, the Egyptian Journal of Hospital Medicine (2008) Vol., 33: 510-520 as available.”
# as §2, §3
# After 3 weeks of respective dietary intervention, the level of Hemoglobin was determined in each animal.
# as §5, §6
# • A. Clinical observations (Daily) • B. Mortality (Daily) • C. Body weight (Initially and then weekly till the end of study) • D. After 3 and 5 weeks of Iron deficient diet supplement • (i) Hematological parameters (RBC count, Hb Level, Hematocrit % MCV, MCH and MCHC). • (ii) Serum Iron Level. • E. At the end of 14 weeks of study • (i) Hematological parameters (RBC count, Hb Level, Hematocrit %, MCV, MCH and MCHC). • (ii) Biochemical parameters (Serum Iron level, Ferroportin level, Serum Ferritin level, Hepcidin level, IL-6 level).
# [4] = system: Iron deficient Diet (IDD) induced anaemia in rats; assay: Hematocrit % level in IDD induced anaemia in rats
# Experimental: as §1, §2, §3, §4
# (§8) After 3 weeks of respective dietary intervention, the level of Hemoglobin was determined in each animal. Looking at low increase in hemoglobin. Hematocrit % (HCT %) level and serum iron level, further dietary intervention was continued for additional two (2) weeks.
# as §5, §6, §7
# [5] = system: Iron deficient Diet (IDD) induced anaemia in rats; assay: Serum iron level in IDD induced anaemia in rats
# Experimental: as §1, §2, §3, §4, §8, §5, §6, §7
# [6] = system: Iron deficient Diet (IDD) induced anaemia in rats; assay: Hepcidin level in IDD induced anaemia in rats
# Experimental: as §1, §2, §3, §4, §5, §6, §7
# [7] = system: Iron deficient Diet (IDD) induced anaemia in rats; assay: Serum ferritin level in IDD induced anaemia in rats
# Experimental: as §1, §2, §3, §4, §5, §6, §7
# [8] = Day 98, after 9 weeks of treatment p.o., IDD rats
# [9] = rats on iron deficient diet, after treatment of 9 weeks, compared to disease control group (G2)
# [10] = Day 35, before treatment, IDD rats
# [11] = rats on iron deficient diet, after treatment for 9 weeks, compared to disease control group (G2)
smiles,measurement,setting,value
"O=S(=O)([O-])[O-].[Fe+2] [FeSO4, ferrous sulphate, reference compound]",Ferroportin Post-treatment,[1]; [8],3.0 ng/mL
same,Ferroportin % Change compared to Disease control,"[1]; Day 98, IDD rats",12.5%
same,Ferroportin level,[1]; [9],no significant change
same,IL-6 Post-treatment,[2]; [8],60.4 pg/mL
same,IL-6 % Change compared to Disease control,"[2]; Day 98, IDD rats",−3.2%
same,IL-6 level,[2]; [9],no significant change
same,Hemoglobin Pre-treatment,[3]; [10],8.71 g/dL
same,Hemoglobin Post-treatment,[3]; [8],15.2 g/dL
same,Hemoglobin % Change compared to Disease control,"[3]; Day 98, IDD rats",134.0%
same,Hb level,[3]; [11],significant increment
same,Hematocrit Pre-treatment,[4]; [10],35.10%
same,Hematocrit Post-treatment,[4]; [8],47.22%
same,Hematocrit % Change compared to Disease control,"[4]; Day 98, IDD rats",83.7%
same,% Hematocrit level,[4]; [11],significant increment
same,Serum IRON Pre-treatment,[5]; [10],2.43 ppm
same,Serum IRON Post-treatment,[5]; [8],9.84 ppm
same,Serum IRON % Change compared to Disease control,"[5]; Day 98, IDD rats",269.2%
same,Serum Iron level,[5]; [11],significant increase
same,Hepcidin Post-treatment,[6]; [8],4260 ng/mL
same,Hepcidin % Change compared to Disease control,"[6]; Day 98, IDD rats",−3.2%
same,Hepcidin level,[6]; [9],no significant change
same,Ferritin Post-treatment,[7]; [8],720 ng/mL
same,Ferritin % Change compared to Disease control,"[7]; Day 98, IDD rats",−2.7%
same,Serum Ferritin level,[7]; [9],no significant change
